Measurements published in article PMC10638401, “Mannich-type modifications of (−)-cannabidiol and (−)-cannabigerol leading to new, bioactive derivatives” (Scientific Reports, 2023).
Values after ≈ are worked out from the molar mass of the structure shown.

What was measured:
[1] = test system: Enterococcus faecalis 29 212; assay: MIC, broth micro dilution; conditions: Enterococcus faecalis, 29212
Method: (§2) According to CLSI guideline the Minimal Inhibitory Concentrations (MICs) of the prepared compounds were determined with the broth micro dilution method. After an overnight growth on 5% bovine blood agar plates at 35 °C bacterial strains were suspended in physiological saline in order to reach the density of 0.5 McFarland for inoculation. Stock solutions containing different concentrations of the substances were prepared in DMSO and H2O (1:1). These were twofold serially diluted from 256 to 0.5 mg/l in Mueller–Hinton broth, and 100 ml of each dilution was inoculated with 10 ml of each bacterial suspension.

[2] = test system: Enterococcus faecalis 15 376 VanA; assay: MIC, broth micro dilution; conditions: Enterococcus faecalis, 15376VANA
SARS-CoV-2 [3] = assay: SARS-CoV-2 immunofluorescence assay (nucleoprotein expression) in Vero E6 cells; format: cell-based; conditions: Severe acute respiratory syndrome coronavirus 2, Vero C1008, 72 h, three days
Method: CBD and CBG derivatives were further tested for their ability to inhibit SARS-CoV-2 replication in Vero E6 cells. Initially, the inhibition of virus-induced cytopathic effect was measured by addition of twofold serial dilutions of each derivative to the cells, followed by the infection with SARS-CoV-2 and determination of the cell viability 3 days post-infection by XTT assay. Concurrently, the cytotoxicity of each compound was assessed from identical dilutions in uninfected Vero E6 cells. To confirm anti-SARS-CoV-2 activity in the CPE inhibition assay, selected compounds were tested in immunofluorescence assay, where inhibition of SARS-CoV-2 replication was monitored as reduction in nucleoprotein expression using fluorescence microscope. […] Among the CBG derivatives, we can find quite cytotoxic and non-cytotoxic derivatives as well.
For CPE-based assay, two-fold fold serial dilutions of compounds from 100 µM were added in triplicate in a 384-well plate with 5000 Vero E6 cells in DMEM medium with 2% FBS, 100 U of penicillin/ml and 100 µg of streptomycin/ml (all Merck). After 1 h incubation SARS-CoV-2 (strain hCoV-19/Czech Republic/NRL_6632_2/2020) was added at multiplicity of infection […]. Following three days incubation at 37 °C in 5% CO2 the cell viability was determined by addition of XTT solution (Sigma-Aldrich) for 4 h and the absorbance was measured using EnVision plate reader (Perkin Elmer). Drug concentrations required to reduce viral cytopathic effect by 50% (EC50) were calculated using nonlinear regression from plots of percentage cell viability versus log10 drug concentration using GraphPad Prism (version 9.0.0, GraphPad Software, LLC). For immunofluorescence assay, two-fold fold serial dilutions of compounds from 100 µM were added in triplicate in 96-well plate with 15,000 Vero E6 cells plated day before in the same medium as above. After 1 h incubation, SARS-CoV-2 was added at multiplicity of infection 0.05 IU/cell. After three days of incubation, cells were fixed with 4% paraformaldehyde, permeabilized with 0.2% Triton X100 (both Merck), washed, incubated with anti-SARS-CoV-2antibody (mouse monoclonal antibody detecting SARS-CoV-2 nucleoprotein) for 2 h at room temperature. Followed by 1.5 h incubation with Cy3-labeled donkey anti-mouse IgG (Jackson ImmunoResearch Europe) and documented using fluorescence microscope with camera (Olympus). Images were processed in ImageJ software (NIH) and compound concentrations required to reduce fluorescence by 50% (EC50s) were calculated from plots of percentage of fluorescent cells versus log10 drug concentration using nonlinear regression analysis as above. Cytotoxicity was evaluated by incubating with the same two-fold serial dilutions of each compound as above with Vero E6 cells in 384-well plate.

SZ95 sebocytes = assay: Viability MTT-assay on sebocytes, 48 h; format: cell-based, human; conditions: 30 μM
Method: Human immortalized SZ95 sebocytes, originated from human facial sebaceous glands[50] were provided by prof. Christos C. Zouboulis, and were cultured in Sebomed® Basal Medium (Cat. No. F8205; Sigma-Aldrich) supplemented with 10% FBS (Gibco-Thermo Fisher Scientific), 1 mM CaCl2 (Cat. No. C7902; Sigma-Aldrich), 5 ng/ml human epidermal growth factor (Cat. No. E9644; Sigma-Aldrich), and MycoZap™ Plus-CL (1:500; Lonza). The medium was changed every other day, and cells were subcultured at 60–70% confluence.
The viability of HaCaT keratinocytes and SZ95 sebocytes was determined by MTT-assay[58] (Cat. No. M5655; Sigma-Aldrich) measuring the conversion of the tetrazolium salt to formazan by mitochondrial dehydrogenases. Cells were plated in 96-well plates (20,000 cells/well), and were treated as indicated. Cells were then incubated with 0.5 mg/ml MTT reagent for 3 h, and concentration of formazan crystals (as an indicator of number of viable cells) was determined colorimetrically at 565 nm by using FlexStation 3 multi-mode microplate reader (Molecular Devices). Results were expressed as percentage of vehicle-treated control regarded as 100%.

MCF7 cells = assay: Antiproliferative MTT assay, 72 h; format: cell-based, human
In short: (§1)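 Cells seeded at 5000/well, grown overnight, then treated with 10 or 30 μM compound for 72 h. MTT added for 4 h, formazan dissolved in DMSO and read at 545 nm. Values are % proliferation inhibition versus untreated controls (0%), two experiments with five wells each.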

A2780 cells = assay: Antiproliferative MTT assay, 72 h; format: cell-based, human
In short: as §1

MDA-MB-231 cells = assay: Antiproliferative MTT assay, 72 h; format: cell-based, human
In short: as §1

SiHa cells = assay: Antiproliferative MTT assay, 72 h; format: cell-based, human
In short: as §1

[4] = test system: Staphylococcus epidermidis mecA; assay: MIC, broth micro dilution; conditions: Staphylococcus epidermidis
Method: as §2

SARS-CoV-2 [5] = assay: SARS-CoV-2 cytopathic effect (CPE) inhibition assay in Vero E6 cells (XTT); format: cell-based; conditions: Severe acute respiratory syndrome coronavirus 2, Vero C1008, 72 h; Vero E6 cells, 3 days post-infection, XTT
[6] = test system: Staphylococcus epidermidis biofilm forming; assay: MIC, broth micro dilution; conditions: Staphylococcus epidermidis

Row | Compound | MIC [1] [µg/mL] | MIC [2] [µg/mL] | EC50 (SARS-CoV-2 [3]) [µM] | viability (MTT signal intensity) (SZ95 sebocytes) | antiproliferative activity (in words) (MCF7 cells; MCF7, 10 and 30 μM) | antiproliferative activity (in words) (A2780 cells; A2780, 10 and 30 μM) | antiproliferative activity (in words) (MDA-MB-231 cells; MDA-MB-231, 10 and 30 μM) | antiproliferative activity (in words) (SiHa cells; 10 and 30 μM) | MIC [4] [µg/mL] | EC50 (SARS-CoV-2 [5]) [µM] | MIC [6] [µg/mL] | inhibition at 30 µM (MCF7 cells; Homo sapiens, MCF7, 30 μM, read-out: inhibition of the proliferation) [%] | inhibition of the proliferation (in words) (MCF7 cells; MCF7, 10 μM) | inhibition of the proliferation (in words) (A2780 cells; A2780, 10 μM) | inhibition at 30 µM (A2780 cells; Homo sapiens, A2780, 30 μM, read-out: inhibition of the proliferation) [%] | inhibition at 30 µM (MDA-MB-231 cells; Homo sapiens, MDA-MB-231, 30 μM, read-out: inhibition of the proliferation) [%] | inhibition of the proliferation (in words) (MDA-MB-231 cells; MDA-MB-231, 10 μM) | inhibition of the proliferation (in words) (SiHa cells; 10 μM) | inhibition at 30 µM (SiHa cells; Homo sapiens, 30 μM, read-out: inhibition of the proliferation) [%]
1 | C=C(C)[C@@H]1CCC(C)=C[C@H]1c1c(O)cc(CCCCC)c(COCC)c1O [Compound 9] | 8 (≈ 21.5 µM) | 128 (≈ 344 µM) | ~94 | no such effect on the viability | None of the other tested CBD analogs (9, 11, and 12) exhibited substantial antiproliferative activity | None of the other tested CBD analogs (9, 11, and 12) exhibited substantial antiproliferative activity | None of the other tested CBD analogs (9, 11, and 12) exhibited substantial antiproliferative activity | None of the other tested CBD analogs (9, 11, and 12) exhibited substantial antiproliferative activity | > 256 | 22 ± 3 | > 256 |  |  |  |  |  |  |  | 
2 | C=C(C)[C@@H]1CCC(C)=C[C@H]1c1c(O)cc(CCCCC)cc1O [Compound 1, (−)-Cannabidiol] | 2 (≈ 6.36 µM) | 4 (≈ 12.7 µM) | 8.3 ± 0.28 | cytotoxic effects |  |  |  |  | 8 (≈ 25.4 µM) | 5.1 ± 0.99 | 8 (≈ 25.4 µM) | ~90 | modest | modest | ~90 | ~90 | negligible | negligible | ~90
